Source: patent publication US6716987B1, “Derivatives of benzofuran or benzodioxazole compounds” (Kyowa Hakko Kogyo Co., Ltd., priority 1995, dated 2004)

What was measured:
[1] = test system: cAMP-specific phosphodiesterase (PDE IV); test: Inhibition of the PDE IV enzyme derived from a dog trachea; format: biochemical; conditions: test compound 10^−6 M; PDE IV from dog tracheal smooth muscle; substrate cAMP 1 μM
How it was run: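 Enzyme purified from dog tracheal smooth muscle; [3H]cAMP substrate at 1 μM final in 50 mM BES pH 7.2, 1 mM MgCl2, 0.1 mg/ml soybean trypsin inhibitor, 30° C for 10–30 min, 1.7% DMSO final. After HCl stop, product converted to adenosine by 5′-nucleotidase, separated on DEAE-Sephadex and scintillation-counted.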

| Compound | Enzyme Inhibitory Activity (%, 10^−6 M) [1] | melting point |
| --- | --- | --- |
| COc1ccc(C(=O)Nc2c(Cl)cncc2Cl)c2cc(-c3ccccn3)oc12 [Compound 40, 4-[(3,5-Dichloro-4-pyridyl)aminocarbonyl]-7-methoxy-2-(2-pyridyl)benzofuran] | 89% | 263 to 264 °C |
| COc1ccc(C(=O)NC2CCCCC2)c2c1OCC2CC(=O)O (racemic) [Compound 12, (±)-3-Carboxymethyl-4-cyclohexylaminocarbonyl-7-methoxy-2,3-dihydrobenzofuran] | 8% | 246 to 247 °C |
| COc1ccc(C(Sc2ccncc2)c2ccccc2)c2c1OCC2C (racemic) [Compound 60A, (±)-7-Methoxy-3-methyl-4-[1-phenyl-1-(4-pyridylthio)-methyl]-2,3-dihydrobenzofuran] | 15% | 59 to 62 °C |
| COc1ccc(C(=O)Nc2c(Cl)cncc2Cl)c2c1OCC2C(C)C (racemic) [Compound 4, (±)-4-[(3,5-Dichloro-4-pyridyl)aminocarbonyl]-7-methoxy-3-(2-propyl)-2,3-dihydrobenzofuran] | 53% | 239 to 241 °C |
| CCOC(=O)Cc1coc2c(OC)ccc(C(=O)Nc3c(Cl)cncc3Cl)c12 [Compound 43, 3-Ethoxycarbonylmethyl-4-[(3,5-dichloro-4-pyridyl)-aminocarbonyl]-7-methoxybenzofuran] | 62% | 216 to 218 °C |
| COc1ccc(C(=O)Nc2c(Cl)cncc2Cl)c2c1OC(C)(C)C=C2 [Compound 121, 5-(3,5-Dichloro-4-pyridylaminocarbonyl)-8-methoxy-2,2-dimethylbenzopyran] | 85% | 174 to 178 °C |
| COc1ccc(C(=O)Nc2c(Cl)cncc2Cl)c2c1OCC2CC(=O)Nc1c(Cl)cncc1Cl (racemic) [Compound 32, (±)-4-[(3,5-Dichloro-4-pyridyl)aminocarbonyl]-3-[(3,5-dichloro-4-pyridyl)aminocarbonyl]methyl-7-methoxy-2,3-dihydrobenzofuran] | 81% | > 300 °C |
| COc1ccc(C#Cc2ccncc2)c2c1OC1(CCCC1)C2 [Compound 142, 7-Methoxy-4-[2-(4-pyridyl)ethynyl]-spiro[2,3-dihydrobenzofuran-2,1′-cyclopentane]] | 76% | 128 to 131 °C |
| CCOC(=O)CC1COc2c(OC)ccc(C(=O)Nc3ccccc3)c21 (racemic) [Compound 7, (±)-3-Ethoxycarbonylmethyl-7-methoxy-4-phenylaminocarbonyl-2,3-dihydrobenzofuran] | 37% | 169 to 170 °C |
| COc1ccc(C(=O)Nc2c(Cl)cncc2Cl)c2c1OCC2CC(=O)NCc1ccc(Cl)cc1 (racemic) [Compound 30, (±)-3-[(4-Chlorobenzyl)aminocarbonyl]methyl-4-[(3,5-dichloro-4-pyridyl)aminocarbonyl]-7-methoxy-2,3-dihydro-benzofuran] | 85% | 283 to 286 °C |
| COc1ccc(C(C#N)Cc2c(Cl)cncc2Cl)c2c1OC(C)(C)C2 (racemic) [Compound 63, (±)-4-[1-Cyano-2-(3,5-dichloro-4-pyridyl)ethyl]-2,2-dimethyl-7-methoxy-2,3-dihydrobenzofuran] | 85% | 158 to 162 °C |
| COc1ccc(C(=O)Nc2c(Cl)cncc2Cl)c2c1OCC2CC(=O)NCc1ccc(F)cc1 (racemic) [Compound 29, (±)-4-[(3,5-Dichloro-4-pyridyl)aminocarbonyl]-3-[(4-fluorobenzyl)aminocarbonyl]methyl-7-methoxy-2,3-dihydro-benzofuran] | 85% | 287 °C |
| COc1ccc(C(=Cc2ccncc2)c2ccccc2)c2c1OCC2C (racemic) [Compound 80, (±)-7-Methoxy-3-methyl-4-[1-phenyl-2-(4-pyridyl)ethenyl]-2,3-dihydrobenzofuran] | 17% | 103 to 105.5 °C |
| COc1ccc(CNC(=O)CC2COc3c(OC)ccc(C(=O)Nc4c(Cl)cncc4Cl)c32)cc1 (racemic) [Compound 28, (±)-4-[(3,5-Dichloro-4-pyridyl)aminocarbonyl]-7-methoxy-3-[(4-methoxybenzyl)aminocarbonyl]methyl-2,3-dihydrobenzofuran] | 83% | 269 to 271 °C |
| COc1ccc(C(=O)Cc2c(Cl)cncc2Cl)c2c1CC1(CCCC1)O2 [Compound 132, 7-[2-(3,5-Dichloro-4-pyridyl)-1-oxoethyl]-4-methoxy-spiro[2,3-dihydrobenzofuran-2,1′-cyclopentane]] | 66% | 70 to 72 °C |
| COc1ccc(C(=O)Nc2c(Cl)cncc2Cl)c2c1OCC2CC(=O)Nc1ccccc1 (racemic) [Compound 27, (±)-4-[(3,5-Dichloro-4-pyridyl)aminocarbonyl]-7-methoxy-3-(phenylaminocarbonyl)methyl-2,3-dihydrobenzofuran] | 75% | 296 to 300 °C (dec.) |
| COc1ccc(C(=O)Nc2c(Cl)cncc2Cl)c2c1OCC2CC(=O)N1CCN(c2ccccc2)CC1 (racemic) [Compound 21, (±)-4-[(3,5-Dichloro-4-pyridyl)aminocarbonyl]-7-methoxy-3-[(4-phenyl-1-piperazinyl)carbonyl]methyl-2,3-dihydrobenzofuran] | 84% | 224 °C |
| COc1ccc(CSc2ccncc2)c2c1OC(C)(C)C2 [Compound 48, 7-Methoxy-2,2-dimethyl-4-(4-pyridylthiomethyl)-2,3-dihydrobenzofuran] | 41% | 109 to 113 °C |
| CCC1(CC)Cc2c(C(=O)Cc3c(Cl)cncc3Cl)ccc(OC)c2O1 [Compound 97, 4-[2-(3,5-Dichloro-4-pyridyl)-1-oxoethyl]-2,2-diethyl-7-methoxy-2,3-dihydrobenzofuran] | 92% | 164 to 166 °C |
| COc1ccc(C(Sc2ccncc2)c2ccccc2)c2c1OCC2C (racemic) [Compound 60B, (±)-7-Methoxy-3-methyl-4-[1-phenyl-1-(4-pyridylthio)-methyl]-2,3-dihydrobenzofuran] | 4% | 84 to 85 °C |
| COc1ccc(CCc2c(Cl)cncc2Cl)c2c1OC(C)(C)C2 [Compound 45, 4-[2-(3,5-Dichloro-4-pyridyl)ethyl]-7-methoxy-2,2-dimethyl-2,3-dihydrobenzofuran] | 74% | 128 to 133 °C |
| COc1ccc(CSc2ccncc2)c2c1OCC2C (racemic) [Compound 59, (±)-7-Methoxy-3-methyl-4-(4-pyridylthiomethyl)-2,3-dihydrobenzofuran] | 24% | 110 to 112 °C |
| COc1ccc(C(=O)Nc2ccccc2)c2c1OCC2CC(=O)O (racemic) [Compound 11, (±)-3-Carboxymethyl-7-methoxy-4-phenylaminocarbonyl-2,3-dihydrobenzofuran] | 6% | 248 to 251 °C |
